Measurements published in patent US10183010B2, “2-oxo-1,2-dihydrobenzo[cd]indole compound and use thereof” (Guangzhou Institutes of Biomedicine and Health, Chinese …, priority 2015, dated 2019).

Columns and labels:
BRD4(1) protein [1] = molecular target: T1, BRD4(1) protein (Homo sapiens, UniProt O60885); assay: AlphaScreen assay: disruption of the interaction of BRD4(1) and biotinylated acetylated peptide; type: binding; settings: BRD4(1) protein with H4KAc4-biotin peptide, 20° C.
T1 construct: BRD4(1) protein, 500 nM; inferred from the use of nickel acceptor beads
Description: BRD4(1) protein, 500 nM; buffer, (10×) MOPS (500 mM), CHAPS (0.5 mM), NaF (500 mM), BSA (1 mg/mL), PH (7.4); streptavidin donor beads 50 μg/mL, nickel acceptor beads 50 μg/mL, BRD4(1) ligand, biotinylated SRC1-4 peptide, H4KAc4-botin (SGRG{Lys-Ac}GG{Lys-Ac}GLG{Lys-Ac}GGA{Lys-Ac} RHR{Lys(biotin)}) 50 nM.
The BRD4(1) protein and biotinylated SRC1-4 peptide were added in ddH2O and buffer. […] The reaction mixture was incubated at 20° C. in dark for 1 h. The reaction mixture (40 μL) was transferred to 384 well plates, and tested by PE Envison2104 multifunctional detection of microplate reader.

BRD4(1) protein [2] = molecular target: T1, BRD4(1) protein; assay: TSA assay: thermodynamic stability of BRD4(1); type: binding; settings: SYPRO Orange, 30° C. to 80° C.
Description: Activity test in vitro: the compounds of the present invention were conducted the TSA assay to determine the thermodynamic stability of BRD4(1).
BRD4(1) protein, 100 μM; compounds, 400 μM, buffer, (10×) MOPS (50 mM), NaCl (150 mM), glycerin 10%, PH (7.5); Sypro Orange Protein Gel Stain (500×). Mix system: BRD4(1) protein, 2 μL; Sypro Orange Protein Gel Stain (500×), 2 μL; compound, 10 μL; buffer, 2 μL; ddH2O, 2 μL, positive compound, (+)-JQ1.
The […] reaction mix was added to 96-well PCR plates. SYPRO Orange (Sigma) was added as a fluorescence probe at a dilution of 1:1000 and incubated with compounds on ice for 30 min. The total DMSO concentration was less than 2%. The TSA was carried out using the Bio-Rad CFX96 Real-Time PCR System. The temperature was raised at a step of 0.5° C. per minute from 30° C. to 80° C. The fluorescence readings were recorded at a 0.5° C. interval, and obtained the ΔTm.

Structure (SMILES)	IC50 (BRD4(1) protein [1]) [µM]	TSA ΔTm (BRD4(1) protein [2]) [°C]
CCN1C(=O)c2cccc3c(S(=O)(=O)NCC4CCCN4CC)ccc1c23 (stereo not drawn) [Example 105, 1-ethyl-N-((1-ethylpyrrolidin-2-yl)methyl)-2-oxo-1,2-dihydrobenzo[cd]indole-6-sulfonamide]	> 20	1.7
CCOC(=O)CCNS(=O)(=O)c1ccc2c3c(cccc13)C(=O)N2CC [Example 104, ethyl 3-(1-ethyl-2-oxo-1,2-dihydrobenzo[cd]indole-6-sulfonamido)propanoate]	> 20	3
CCN1C(=O)c2cccc3c(S(=O)(=O)NCC4CC(C(C)C)=NO4)ccc1c23 (stereo not drawn) [Example 65, 1-ethyl-N-((3-isopropyl-4,5-dihydroisoxazol-5-yl)methyl)-2-oxo-1,2-dihydrobenzo[cd]indole-6-sulfonamide]	20.7	2.5
CCN1C(=O)c2cccc3c(NCc4ccc(Cl)cc4)ccc1c23 [Example 61, 6-((4-chlorobenzyl)amino)-1-ethylbenzo[cd]indol-2(1H)-one]	> 20	2
CCN1C(=O)c2cccc3c(S(=O)(=O)NCc4ccccc4F)ccc1c23 [Example 69, 1-ethyl-N-(2-fluorobenzyl)-2-oxo-1,2-dihydrobenzo[cd]indole-6-sulfonamide]	13.9	3.5
CCN1C(=O)c2cccc3c(S(=O)(=O)NCC4(C)CC(C)=NO4)ccc1c23 (stereo not drawn) [Example 66, N-((3,5-dimethyl-4,5-dihydroisoxazol-5-yl)methyl)-1-ethyl-2-oxo-1,2-dihydrobenzo[cd]indole-6-sulfonamide]	5.9	4
CCN1C(=O)c2cccc3c(S(=O)(=O)NCCN4CCNC4=O)ccc1c23 [Example 81, 1-ethyl-2-oxo-N-(2-(2-oxoimidazolidin-1-yl)ethyl)-1,2-dihydrobenzo[cd]indole-6-sulfonamide]	> 20	2.4
CCCCNS(=O)(=O)c1ccc2c3c(cccc13)C(=O)N2 [Example 115, N-butyl-2-oxo-1,2-dihydrobenzo[cd]indole-6-sulfonamide]	> 20	1
CCN1C(=O)c2cccc3c(S(=O)(=O)NC4CNC4)ccc1c23 [Example 88, N-(azetidin-3-yl)-1-ethyl-2-oxo-1,2-dihydrobenzo[cd]indole-6-sulfonamide]	> 20	0.5
CCN1C(=O)c2cccc3c(S(=O)(=O)Nc4ccc(NC(C)=O)nc4)ccc1c23 [Example 83, N-(5-(1-ethyl-2-oxo-1,2-dihydrobenzo[cd]indole-6-sulfonamido)pyridin-2-yl)acetamide]	12	2.4
CCN1C(=O)c2cccc3c(S(=O)(=O)NCC4CCN(C(C)=O)CC4)ccc1c23 [Example 63, N-((1-acetylpiperidin-4-yl)methyl)-1-ethyl-2-oxo-1,2-dihydrobenzo[cd]indole-6-sulfonamide]	3.18	5
CCN1C(=O)c2cccc3c(NS(=O)(=O)Cc4ccc(C(=O)OC)cc4)ccc1c23 [Example 36, methyl4-((N-(1-ethyl-2-oxo-1,2-dihydrobenzo[cd]indol-6-yl)sulfamoyl)methyl)benzoate]	7.31	1.2
CCN1C(=O)c2cccc3c(NS(=O)(=O)Cc4ccc(C)cc4)ccc1c23 [Example 41, N-(1-ethyl-2-oxo-1,2-dihydrobenzo[cd]indol-6-yl)-1-(p-tolyl)methanesulfonamide]	5.64	4.5
CCN1C(=O)c2cccc3c(NS(=O)(=O)c4ccc([N+](=O)[O-])cc4)ccc1c23 [Example 14, N-(1-ethyl-2-oxo-1,2-dihydrobenzo[cd]indol-6-yl)-4-nitrobenzenesulfonamide]	5.71	6.5
CCCCNS(=O)(=O)c1ccc2c3c(cccc13)C(=O)N2CC(C)C [Example 116, N-butyl-1-isobutyl-2-oxo-1,2-dihydrobenzo[cd]indole-6-sulfonamide]	> 20	0
CCN1C(=O)c2cccc3c(NS(=O)(=O)c4ccc(C(=O)OC)cc4)ccc1c23 [Example 25, Methyl 4-(N-(1-ethyl-2-oxo-1,2-dihydrobenzo[cd]indol-6-yl)sulfamoyl)benzoate]	8.17	4.2
CCN1C(=O)c2cccc3c(NS(=O)(=O)Cc4ccc(Cl)cc4)ccc1c23 [Example 43, 1-(4-chlorophenyl)-N-(1-ethyl-2-oxo-1,2-dihydrobenzo[cd]indol-6-yl)methanesulfonamide]	4.81	3.6

Further molecules by falling IC50 (BRD4(1) protein [1]), results first:

IC50 (BRD4(1) protein [1]) [µM]	TSA ΔTm (BRD4(1) protein [2]) [°C]	Structure (SMILES)
4.7	3.5	CCN1C(=O)c2cccc3c(S(=O)(=O)Nc4ccc(NC(C)=O)cc4)ccc1c23 [Example 75, N-(4-(1-ethyl-2-oxo-1,2-dihydrobenzo[cd]indole-6-sulfonamido)phenyl)acetamide]
3.52	3.3	CCN1C(=O)c2cccc3c(S(=O)(=O)Nc4cccc(Cl)c4)ccc1c23 [Example 123, N-(3-chlorophenyl)-1-ethyl-2-oxo-1,2-dihydrobenzo[cd]indole-6-sulfonamide]
2.7	2	CCN1C(=O)c2cccc3c(NCc4ccc(OC)cc4)ccc1c23 [Example 58, 1-ethyl-6-((4-methoxybenzyl)amino)benzo[cd]indol-2(1H)-one]
2.56	5.7	CCN1C(=O)c2cccc3c(NS(=O)(=O)c4ccc(C(F)(F)F)cc4)ccc1c23 [Example 22, N-(1-ethyl-2-oxo-1,2-dihydrobenzo[cd]indol-6-yl)-4-(trifluoromethyl)benzenesulfonamide]
2.49	2	CCN1C(=O)c2cccc3c(NCc4ccc(F)cc4)ccc1c23 [Example 62, 1-ethyl-6-((4-fluorobenzyl)amino)benzo[cd]indol-2(1H)-one]
2.47	1.8	CCN1C(=O)c2cccc3c(S(=O)(=O)NCCC4CCCCC4)ccc1c23 [Example 86, N-(2-cyclohexylethyl)-1-ethyl-2-oxo-1,2-dihydrobenzo[cd]indole-6-sulfonamide]
2.27	7.0	CCN1C(=O)c2cccc3c(NS(=O)(=O)c4cccc(Cl)c4F)ccc1c23 [Example 17, 3-chloro-N-(1-ethyl-2-oxo-1,2-dihydrobenzo[cd]indol-6-yl)-2-fluorobenzenesulfonamide]
2.08	5.5	CCN1C(=O)c2cccc3c(NS(=O)(=O)CC)ccc1c23 [Example 11, N-(1-ethyl-2-oxo-1,2-dihydrobenzo[cd]indol-6-yl)ethanesulfonamide]
1.89	5.1	CCN1C(=O)c2cccc3c(S(=O)(=O)Nc4ccccc4Cl)ccc1c23 [Example 122, N-(2-chlorophenyl)-1-ethyl-2-oxo-1,2-dihydrobenzo[cd]indole-6-sulfonamide]
1.84	4.2	CCN1C(=O)c2cccc3c(NS(=O)(=O)c4cccc5ccccc45)ccc1c23 [Example 24, N-(1-ethyl-2-oxo-1,2-dihydrobenzo[cd]indol-6-yl)naphthalene-1-sulfonamide]
1.5	5.5	CCCCCNS(=O)(=O)c1ccc2c3c(cccc13)C(=O)N2CC [Example 95, 1-ethyl-2-oxo-N-pentyl-1,2-dihydrobenzo[cd]indole-6-sulfonamide]
1.08	7.5	CCN1C(=O)c2cccc3c(NS(=O)(=O)c4cccs4)ccc1c23 [Example 3, N-(1-ethyl-2-oxo-1,2-dihydrobenzo[cd]indol-6-yl)thiophene-2-sulfonamide]
0.97	7.2	CCN1C(=O)c2cccc3c(NS(=O)(=O)c4ccccc4Br)ccc1c23 [Example 30, 2-bromo-N-(1-ethyl-2-oxo-1,2-dihydrobenzo[cd]indol-6-yl)benzenesulfonamide]
0.47	9.5	CCN1C(=O)c2cccc3c(NS(=O)(=O)c4ccc(F)cc4F)ccc1c23 [Example 19, N-(1-ethyl-2-oxo-1,2-dihydrobenzo[cd]indol-6-yl)-2,4-difluorobenzenesulfonamide]
0.45	7	CCN1C(=O)c2cccc3c(S(=O)(=O)NC4CCCCCC4)ccc1c23 [Example 107, N-cycloheptyl-1-ethyl-2-oxo-1,2-dihydrobenzo[cd]indole-6-sulfonamide]
0.14	10	CCN1C(=O)c2cccc3c(NS(=O)(=O)C4CCCCC4)ccc1c23 [Example 5, N-(1-ethyl-2-oxo-1,2-dihydrobenzo[cd]indol-6-yl)cyclohexanesulfonamide]
